Assay [1] has as its system TGF-β-stimulated SMAD3 phosphorylation in BEAS-2B cells. Briefly: Cellular ALK5 potency assay, inhibition of TGF-β stimulated pSMAD3 formation in BEAS-2B cells. Type of assay: cell-based. The settings on record: Homo sapiens; inhibition of TGF-β stimulated pSMAD3 formation, BEAS-2B cells; read-out: BEAS2B pIC50 (converted). The method in brief:
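Potency is reported as pIC50, derived from concentration-dependent reduction of pSMAD3 AlphaLISA signal against TGF-β-stimulated cells without compound. BEAS-2B cells received compound for 1 h before a 30-min stimulation with 10 ng/mL TGF-β.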

Assay [2] concerns the target T1, recombinant human ALK5 (TGF-βR1) protein (Homo sapiens, UniProt P36897).
T1 construct: purchased Life Technologies PR9075A
T1 sequence (P36897 34-503): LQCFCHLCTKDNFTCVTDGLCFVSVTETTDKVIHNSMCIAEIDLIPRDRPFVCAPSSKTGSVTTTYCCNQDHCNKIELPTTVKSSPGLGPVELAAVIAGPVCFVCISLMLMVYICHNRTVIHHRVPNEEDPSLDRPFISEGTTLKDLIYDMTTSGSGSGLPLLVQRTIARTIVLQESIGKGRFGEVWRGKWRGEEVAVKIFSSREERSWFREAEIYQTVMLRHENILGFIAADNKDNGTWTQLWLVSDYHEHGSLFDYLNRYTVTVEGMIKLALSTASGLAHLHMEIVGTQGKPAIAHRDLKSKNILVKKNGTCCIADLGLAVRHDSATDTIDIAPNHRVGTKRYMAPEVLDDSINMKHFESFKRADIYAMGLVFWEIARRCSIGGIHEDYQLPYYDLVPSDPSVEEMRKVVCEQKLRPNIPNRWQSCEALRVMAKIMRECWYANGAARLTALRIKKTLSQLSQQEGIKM
Briefly: Biochemical ALK5 (TGF-βR1) assay to measure pKi (LANCE Ultra ULight kinase assay). The note with it: apparent pKi from pIC50 by Cheng-Prusoff, read-out: ALK5 pKi (converted). The method in brief:
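After a 60 min room-temperature preincubation of ALK5 with compound, phosphorylation proceeds 60 min at 37 °C on ATP addition (125 μM as 5× stock). Detection: Eu-labelled phospho-Thr1342 Topo IIα antibody in EDTA buffer, pH 7.0; emission 665 nm.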
(In general: In TR-FRET formats the signal depends on donor and acceptor labels being close together.)

Some results are limits rather than exact numbers.

We go through 25 compounds from patent publication US11590116B2 (THERAVANCE BIOPHARMA R&D IP, LLC, priority 2019, dated 2023).

Turning to `Cc1cccc(-c2n[nH]cc2-c2ccc3ncc(N4CCn5nc(C6=CCC(N)CC6)nc5C4)cc3n2)n1` (centres unmarked) [Compound 268, 4-[7-[6-[3-(6-methyl-2-pyridyl)-1H-pyrazol-4-yl]-1,5-naphthyridin-3-yl]-6,8-dihydro-5H-[1,2,4]triazolo[1,5-a]pyrazin-2-yl]cyclohex-3-en-1-amine], in assay [1], the IC50 is 200 to 1260 nM. Moreover, in assay [2], the Ki is 0.0398 to 0.316 nM.

`CCOC(=O)CCc1ccnc2ccc(-c3c[nH]nc3-c3cccc(C)n3)nc12` [Compound 814, ethyl 3-[6-[3-(6-methyl-2-pyridyl)-1H-pyrazol-4-yl]-1,5-naphthyridin-4-yl]propanoate]: the IC50 in assay [1] was 25.1 to 158 nM. For the same compound, in assay [2], the Ki is 0.0398 to 0.316 nM.

As for `Cc1cccc(-c2[nH]cnc2-c2ccc3ncc(C4=CCC(C(=O)OC5CCNCC5)CC4)cc3c2)n1` (centres unmarked) [Compound 444, 4-piperidyl 4-[6-[5-(6-methyl-2-pyridyl)-1H-imidazol-4-yl]-3-quinolyl]cyclohex-3-ene-1-carboxylate], in assay [1], the IC50 is 25.1 to 158 nM. The Ki in assay [2] is 0.0398 to 0.316 nM.

Turning to `COC(=O)[C@H]1CN(c2cnc3ccc(-c4c[nH]nc4-c4cccc(C)n4)nc3c2)CCN1` [Compound 442, methyl (2R)-4-[6-[3-(6-methyl-2-pyridyl)-1H-pyrazol-4-yl]-1,5-naphthyridin-3-yl]piperazine-2-carboxylate], the IC50 in assay [1] is 25.1 to 158 nM. The Ki in assay [2] is 0.0398 to 0.316 nM.

On to `Cc1cccc(-c2n[nH]cc2-c2ccc3ncc(-c4cc(C(F)(F)F)n[nH]4)cc3n2)n1` [Compound 139, 2-[3-(6-methyl-2-pyridyl)-1H-pyrazol-4-yl]-7-[3-(trifluoromethyl)-1H-pyrazol-5-yl]-1,5-naphthyridine], for which the IC50 in assay [1] is 25.1 to 158 nM. Besides, the Ki in assay [2] was 0.0398 to 0.316 nM.

Regarding `Cc1cccc(-c2nc3ncccn3c2-c2ccc3ncc(-c4cn[nH]c4)cc3n2)n1` [Compound 676, 2-(2-(6-methylpyridin-2-yl)imidazo[1,2-a]pyrimidin-3-yl)-7-(1H-pyrazol-4-yl)-1,5-naphthyridine], the IC50 in assay [1] is 25.1 to 158 nM. Also, in assay [2], the Ki is 0.0398 to 0.316 nM.

`Cc1cccc(-c2n[nH]cc2-c2ccc3ncc(-c4cn(Cc5ccccc5)nn4)cc3n2)n1` [Compound 48, 7-(l-benzyltriazol-4-yl)-2-[3-(6-methyl-2-pyridyl)-1H-pyrazol-4-yl]-1,5-naphthyridine]: the IC50 in assay [1] was less than 20 nM. Besides, the Ki in assay [2] is 0.0398 to 0.316 nM.

As for `Cc1cccc(-c2[nH]cnc2-c2ccc3ncc(-c4ccc(C(=O)OCCN5CCC[C@@H](N)C5)cn4)cc3c2)n1` [Compound 1174, 2-[(3R)-3-amino-1-piperidyl]ethyl 6-[6-[5-(6-methyl-2-pyridyl)-1H-imidazol-4-yl]-3-quinolyl]pyridine-3-carboxylate], the IC50 in assay [1] is 25.1 to 158 nM. In addition, the Ki in assay [2] was 0.0398 to 0.316 nM.

In the case of `Cc1cccc(-c2[nH]cnc2-c2ccc3ncc(-c4csc(C(=O)OC5CNC5)n4)cc3c2)n1` [Compound 1046, azetidin-3-yl 4-[6-[5-(6-methyl-2-pyridyl)-1H-imidazol-4-yl]-3-quinolyl]thiazole-2-carboxylate], the IC50 in assay [1] is 25.1 to 158 nM. For the same compound, in assay [2], the Ki was 0.0398 to 0.316 nM.

For the compound `Cc1cccc(-c2n[nH]cc2-c2ccc3ncc(N4CCNC[C@H]4C)cc3n2)n1` [Compound 271, 7-[(2R)-2-methylpiperazin-1-yl]-2-[3-(6-methyl-2-pyridyl)-1H-pyrazol-4-yl]-1,5-naphthyridine], the IC50 in assay [1] is 25.1 to 158 nM. Besides, the Ki in assay [2] was 0.0398 to 0.316 nM.

Take `Cc1cccc(-c2[nH]ncc2-c2ccc3nccc(C(=O)O[C@H]4CC[C@H](N)CC4)c3c2)n1` [Compound 1217, (4-aminocyclohexyl) 6-[5-(6-methyl-2-pyridyl)-1H-pyrazol-4-yl]quinoline-4-carboxylate]: in assay [1], the IC50 is 25.1 to 158 nM. In assay [2], the Ki was 0.398 to 3.16 nM.

With `Cc1cccc(-c2[nH]cnc2-c2ccc3ncc(C(=O)OC[C@H]4CC[C@@H](N)CC4)cc3c2)n1` [Compound 770, (4-aminocyclohexyl)methyl 6-[5-(6-methyl-2-pyridyl)-1H-imidazol-4-yl]quinoline-3-carboxylate], the IC50 in assay [1] was 25.1 to 158 nM. In assay [2], the Ki was 0.0398 to 0.316 nM.

For `Cc1cccc(-c2[nH]cnc2-c2ccc3ncc(-c4ncc(C(=O)O[C@H]5CCNC5)s4)cc3c2)n1` [Compound 1160, [(3S)-pyrrolidin-3-yl] 2-[6-[5-(6-methyl-2-pyridyl)-1H-imidazol-4-yl]-3-quinolyl]thiazole-5-carboxylate], the IC50 in assay [1] is less than 20 nM. Also, the Ki in assay [2] is less than 0.0316 nM.

As for `Cc1nc(-c2n[nH]cc2-c2ccc3ncc(NCCN4CCN(C(C)C)CC4)cc3n2)ccc1F` [Compound 43, 6-[3-(5-fluoro-6-methyl-2-pyridyl)-1H-pyrazol-4-yl]-N-[2-(4-isopropylpiperazin-1-yl)ethyl]-1,5-naphthyridin-3-amine], in assay [1], the IC50 was 25.1 to 158 nM. In addition, the Ki in assay [2] was 0.0398 to 0.316 nM.

`Cc1cccc(-c2[nH]cnc2-c2ccc3ncc(C4=CC[C@@H](NC(=O)[C@@H]5CCCN5)CC4)cc3c2)n1` [Compound 775, (2S)-N-[(1S)-4-[6-[5-(6-methyl-2-pyridyl)-1H-imidazol-4-yl]-3-quinolyl]cyclohex-3-en-1-yl]pyrrolidine-2-carboxamide]: the IC50 in assay [1] was 25.1 to 158 nM. Also, the Ki in assay [2] is 0.0398 to 0.316 nM.

With `Cc1cccc(-c2[nH]nnc2-c2ccc3ncc(N4CCCNCC4)cc3c2)n1` [Compound 339, 3-(1,4-diazepan-1-yl)-6-[5-(6-methyl-2-pyridyl)-1H-triazol-4-yl]quinoline], the IC50 in assay [1] is 200 to 1260 nM. The Ki in assay [2] is 0.398 to 3.16 nM.

Take `Cc1cccc(-c2n[nH]cc2-c2ccc3nccc(CNCCN4CCOCC4)c3n2)n1` [Compound 816, N-[[6-[3-(6-methyl-2-pyridyl)-1H-pyrazol-4-yl]-1,5-naphthyridin-4-yl]methyl]-2-morpholino-ethanamine]: the IC50 in assay [1] was 25.1 to 158 nM. The Ki in assay [2] was 0.0398 to 0.316 nM.

Take `Cc1cccc(-c2[nH]cnc2-c2ccc3ncc(-c4ccc(C(=O)OCC5CNC5)s4)cc3c2)n1` [Compound 1007, azetidin-3-ylmethyl 5-(6-(5-(6-methylpyridin-2-yl)-1H-imidazol-4-yl)quinolin-3-yl)thiophene-2-carboxylate]: the IC50 in assay [1] is 25.1 to 158 nM. Besides, in assay [2], the Ki was 0.0398 to 0.316 nM.

Regarding `Cc1cccc(-c2[nH]cnc2-c2ccc3ncc(-c4cc(C(=O)OC5CNC5)ccn4)cc3c2)n1` [Compound 1074, azetidin-3-yl 2-[6-[5-(6-methyl-2-pyridyl)-1H-imidazol-4-yl]-3-quinolyl]pyridine-4-carboxylate], the IC50 in assay [1] was 25.1 to 158 nM. Further, in assay [2], the Ki was 0.0398 to 0.316 nM.

Take `Cc1cccc(-c2n[nH]cc2-c2ccc3nccc(CN4CCOCC4)c3n2)n1` [Compound 811, 4-[[6-[3-(6-methyl-2-pyridyl)-1H-pyrazol-4-yl]-1,5-naphthyridin-4-yl]methyl]morpholine]: in assay [1], the IC50 is 200 to 1260 nM. Also, the Ki in assay [2] is 0.0398 to 0.316 nM.

With `Cc1nc(-c2n[nH]cc2-c2ccc3ncc(NCCN4CCCC4(C)C)cc3n2)ccc1F` [Compound 526, N-(2-(2,2-dimethylpyrrolidin-1-yl)ethyl)-6-(3-(5-fluoro-6-methylpyridin-2-yl)-1H-pyrazol-4-yl)-1,5-naphthyridin-3-amine], in assay [1], the IC50 is 25.1 to 158 nM. Moreover, the Ki in assay [2] was less than 0.0316 nM.

Take `Cc1cccc(-c2nn3c(c2-c2ccc4ncc(-c5cn[nH]c5)cc4n2)CNCC3)n1` [Compound 115, 2-(2-(6-Methylpyridin-2-yl)-4,5,6,7-tetrahydropyrazolo[1,5-a]pyrazin-3-yl)-7-(1H-pyrazol-4-yl)-1,5-naphthyridine]: in assay [1], the IC50 is 25.1 to 158 nM. Besides, the Ki in assay [2] was 0.0398 to 0.316 nM.

On to `CNCCn1cc(-c2cnc3ccc(-c4c(-c5cccc(C)n5)[nH]c5ncccc45)cc3c2)cn1` [Compound 306, N-methyl-2-(4-(6-(2-(6-methylpyridin-2-yl)-1H-pyrrolo[2,3-b]pyridin-3-yl)quinolin-3-yl)-1H-pyrazol-1-yl)ethan-1-amine], for which the IC50 in assay [1] is 25.1 to 158 nM. Moreover, in assay [2], the Ki was less than 0.0316 nM.

Take `Cc1cccc(-c2[nH]ncc2-c2ccc3ncc(C(=O)OCCCCN4CCCC4)cc3n2)n1` [Compound 146, 4-pyrrolidin-1-ylbutyl 6-[5-(6-methyl-2-pyridyl)-1H-pyrazol-4-yl]-1,5-naphthyridine-3-carboxylate]: the IC50 in assay [1] was 25.1 to 158 nM. Besides, the Ki in assay [2] was 0.0398 to 0.316 nM.

For `CCOC(=O)c1ccnc2ccc(-c3c(-c4cccc(C)n4)n[nH]c3-c3cccc(F)c3)nc12` [Compound 858, ethyl 6-[5-(3-fluorophenyl)-3-(6-methyl-2-pyridyl)-1H-pyrazol-4-yl]-1,5-naphthyridine-4-carboxylate], the IC50 in assay [1] was 200 to 1260 nM. Also, in assay [2], the Ki is 3.98 to 31.6 nM.
